In patent publication EP1980248B1, “Composition for treating cancer cells and synthetic method for the same” (Kaohsiung Medical University, priority 2007, dated 2008):
Values after ≈ are worked out from the molar mass of the structure shown.

Experiments:
Assay in all cases: Cytotoxicity assay, MTT colorimetric method
Assay type in all cases: cell-based
[1] = system: A549; conditions: A549 human lung cancer cell line; 72 hrs treatment; cell viability by MTT
Method: (§1) Human liver (HepG2 and Hep3B), breast (MCF-7 and MDA-MB-231), and lung (A549) cancer cell lines were propagated in RPMI-1640 medium supplement with 10% (v/v) FBS, 100 U/mL penicillin and 100 µg/mL streptomycin at 37°C in a humidified atmosphere of 5% CO2 and 95% air. The culturing medium is changed every three days. Upon confluency, cells were subcultured to confluency, and used for experiments. The experimental period is determined according to the aim of experiment.
(§2) Cytotoxicity is measured by the MTT colorimetric method. Cells were seeded at densities of 5,000 - 10,000 cells/well in 96-well tissue culture plates. On day two, cells are treated with test compounds for another 72 hrs. After drug treatment, attached cells were incubated with MTT (0.5 mg/mL) for 1 hr and subsequently solubilized in DMSO. The absorbency at 550 nm is then measured using a microplate reader. The IC50 is the concentration of agent that reduces the cell viability by 50% under the experimental conditions, and the cytotoxic compound, Doxorubicin, is used as a positive control.

[2] = system: Hep3B; conditions: Hep3B human liver cancer cell line; 72 hrs treatment; cell viability by MTT
Method: as §1, §2

[3] = system: HepG2; conditions: HepG2 human liver cancer cell line; 72 hrs treatment; cell viability by MTT
Method: as §1, §2

[4] = system: MCF-7; conditions: MCF-7 human breast cancer cell line, 72 hrs treatment, cell viability by MTT; for IC50: MCF7
Method: as §1, §2

[5] = system: MDA-MB-231; conditions: MDA-MB-231 human breast cancer cell line; 72 hrs treatment; cell viability by MTT
Method: as §1, §2

SMILES	IC50 [1]	IC50 [2]	IC50 [3]	IC50 [4]	IC50 [5]	IC50 A549 [1]	IC50 Hep3B [2]	IC50 HepG2 [3]	IC50 MCF-7 [4]	IC50 MDA-MB-231 [5]
COC1(c2cc(=O)c3c(ccc4ccccc43)o2)C=CC(=O)C=C1 [compound 15b]	8.2 µg/mL (≈ 25.8 µM)	0.35 µg/mL (≈ 1.1 µM)	3.16 µg/mL (≈ 9.93 µM)	0.86 µg/mL (≈ 2.7 µM)	0.37 µg/mL (≈ 1.16 µM)					
COC1(c2cc(=O)c3c(C)cccc3o2)C=CC(=O)C=C1 [10b, 1'-methoxy-5-methylprotoflavonone]						16.36 µg/mL (≈ 58 µM)	0.66 µg/mL (≈ 2.34 µM)	7.64 µg/mL (≈ 27.1 µM)	1.55 µg/mL (≈ 5.49 µM)	0.54 µg/mL (≈ 1.91 µM)
COc1cccc2c1C(=O)c1c(O)c3c(c(O)c1C2=O)C[C@@](O)(C(=O)CO)C[C@@H]3O[C@H]1C[C@H](N)[C@H](O)[C@H](C)O1 [Doxorubicin, reference compound]	0.21 µg/mL (≈ 0.386 µM)	0.36 µg/mL (≈ 0.662 µM)	0.29 µg/mL (≈ 0.534 µM)	0.43 µg/mL (≈ 0.791 µM)	0.08 µg/mL (≈ 0.147 µM)					
COC1(c2cc(=O)c3ccccc3o2)C=CC(=O)C=C1 [compound 8b, 1'-methoxyprotoflavonoen]	> 20 µg/mL	1.45 µg/mL (≈ 5.41 µM)	10.9 µg/mL (≈ 40.8 µM)	2.14 µg/mL (≈ 7.98 µM)	1.47 µg/mL (≈ 5.48 µM)					
O=C1C=CC(O)(c2cc(=O)c3ccccc3o2)C=C1 [compound 8a, 2-(1-hydroxy-4-oxocyclohexa-2,5-dienyl)-4H-chromen-4-one]	1.33 µg/mL (≈ 5.23 µM)	0.32 µg/mL (≈ 1.26 µM)	1.71 µg/mL (≈ 6.73 µM)	0.44 µg/mL (≈ 1.73 µM)	0.18 µg/mL (≈ 0.708 µM)					
O=C1C=CC(O)(c2cc(=O)c3c(O)cc(O)cc3o2)C=C1 [protoapigenone]	3.96 µg/mL (≈ 13.8 µM)	0.65 µg/mL (≈ 2.27 µM)	2.32 µg/mL (≈ 8.11 µM)	1.07 µg/mL (≈ 3.74 µM)	0.41 µg/mL (≈ 1.43 µM)					
O=C1C=CC(O)(c2cc(=O)c3c(ccc4ccccc43)o2)C=C1 [compound 15a, 3-(1-hydroxy-4-oxocyclohexa-2,5-dienyl)-1H-benzo[f]chromen-1-one]	0.55 µg/mL (≈ 1.81 µM)	0.09 µg/mL (≈ 0.296 µM)	1.08 µg/mL (≈ 3.55 µM)	0.2 µg/mL (≈ 0.657 µM)	0.12 µg/mL (≈ 0.394 µM)					
COc1cc(O)c2c(=O)cc(C3(O)C=CC(=O)C=C3)oc2c1 [compound 18a, 5-hydroxy-2-(1-hydroxy-4-oxocyclohexa-2,5-dienyl)-7-methoxy-4H-chromen-4-one]	0.93 µg/mL (≈ 3.1 µM)	0.2 µg/mL (≈ 0.666 µM)	0.17 µg/mL (≈ 0.566 µM)	0.51 µg/mL (≈ 1.7 µM)	0.13 µg/mL (≈ 0.433 µM)					
O=C1C=CC(O)(c2cc(=O)c3c(O)cccc3o2)C=C1 [compound 10a, 2-(1-hydroxy-4-oxocyclohexa-2,5-dienyl)-5-hydroxy-4H-chromen-4-one]	1.37 µg/mL (≈ 5.07 µM)	0.35 µg/mL (≈ 1.3 µM)	1.34 µg/mL (≈ 4.96 µM)	0.93 µg/mL (≈ 3.44 µM)	0.18 µg/mL (≈ 0.666 µM)					
